A short description of the data set: Acute intervention: nutrikinetics of plasma metabolites after ingestion of O. europaea extract (untargeted HPLC-ESI-QTOF-MS). As to the method:
A total of 25 healthy individuals participated, with an average age of 27 ± 9 years and a mean body mass index (BMI) of 23 ± 3 kg/m^2. None of the participants were taking any medications or nutritional supplements nor did they have any chronic diseases or gastrointestinal issues. The sample size was established based on findings from previous bioavailability research.[14] All participants provided informed consent before participating in the study.
The intervention study was carried out at Miguel Hernández University. Following an overnight fast, the volunteers were categorized into the subsequent groups: a subgroup to evaluate the LC leaf extract (n = 8), another for the OE leaf extract (n = 8), and the placebo subgroup (n = 9). This was a double-blind study, in which sample collection and treatment were carried out uniformly across all three subgroups.
Water was provided ad libitum. Prior to the ingestion of the capsule, a nurse inserted a cannula into the ulnar vein of each volunteer’s nondominant arm, and blood samples were drawn into EDTA-coated tubes at baseline (t = 0). Blood samples were then collected at 0.5, 1, 2, 4, 6, 8, and 10 h after the consumption of the 500 mg capsule. Plasma was separated through centrifugation (10 min at 3000 rpm and 4 °C) and stored at −80 °C until further analysis.
Plasma samples were initially treated using a mixture of methanol and ethanol (50:50; v:v) to remove proteins, following previously reported protocols.[19] During the sample treatment, pooled quality controls (pooled-QC) were prepared by combining equal aliquots from each sample. These QC samples were processed by using the same protocols as the experimental biological samples.
A reversed-phase analytical C18 column (Agilent Zorbax Eclipse Plus, 1.8 μm, 4.6 × 150 mm^2) with a protective cartridge with the same packing was used. MS data were acquired in negative ionization mode, operating in full scan across a mass-to-charge ratio (m/z) range of 50–1700. The analytical method used was adapted from that described by Villegas-Aguilar et al.[19]
Metabolite nutrikinetics were studied using PKSolver, an add-in program for pharmacokinetic data analysis in Microsoft Excel. The time to reach the maximum concentration (observed Tmax) was calculated for each significant metabolite. As an untargeted metabolomic approach was used to detect the circulating metabolites, these were not quantified. Therefore, the maximum concentration (Cmax) and area under the curve (AUC) parameters were calculated in a relative way by using the deconvoluted chromatographic areas. […] Statistical differences were determined by unpaired t tests. All p values less than 0.05 were considered statistically significant.

Where [1] appears, read: 0.5 h after O. europaea extract.
Where [2] appears, read: human plasma, 500 mg capsule of O. europaea (OE) extract, oral, mean ± SD.

For “10-hydroxy-7 -methoxyoleuropein [10-hydroxy-7-methoxyoleuropein isomer 1]”, the “mean chromatographic area in plasma, T0.5” value under setting [1] came to 0. Further, under “1 h after O. europaea extract”, the “mean chromatographic area in plasma, T1” value is 61. For the same compound, for the setting “2 h after O. europaea extract”, the “mean chromatographic area in plasma, T2” value is 107. For the same compound, the “mean chromatographic area in plasma, T4” value (4 h after O. europaea extract) is given as 16. Further, the “mean chromatographic area in plasma, T6” value (6 h after O. europaea extract) is recorded as 0. Moreover, the “mean chromatographic area in plasma, T8” value (8 h after O. europaea extract) came to 0. The “mean chromatographic area in plasma, T10” value (10 h after O. europaea extract) turned out to be 0. Moreover, under setting [2], the “Cmax: relative maximum plasma level” value was 107 ± 22 relative chromatographic area and the “observed Tmax: time required to reach Cmax” value (shortened to “observed Tmax: time required”) is reported as 2 ± 0 h.

In the case of “10-hydroxy-7 -methoxyoleuropein [10-hydroxy-7-methoxyoleuropein isomer 2]”, under setting [1], the “mean chromatographic area in plasma, T0.5” value is listed as 11. Also, the “mean chromatographic area in plasma, T1” value (1 h after O. europaea extract) is on record as 164. Moreover, the “mean chromatographic area in plasma, T2” value (2 h after O. europaea extract) is 229. For the same compound, the “mean chromatographic area in plasma, T4” value (4 h after O. europaea extract) stood at 148. Besides, the “mean chromatographic area in plasma, T6” value (6 h after O. europaea extract) is 34. Also, the “mean chromatographic area in plasma, T8” value (8 h after O. europaea extract) is 0. Also, the “mean chromatographic area in plasma, T10” value (10 h after O. europaea extract) is recorded as 0. Further, under setting [2], the “Cmax: relative maximum plasma level” value is 241 ± 89 relative chromatographic area and the “observed Tmax: time required” value turned out to be 1.9 ± 0.3 h.

Consider `OC[C@H]1O[C@@H](OCc2ccoc2)[C@H](O)[C@@H](O)[C@@H]1O` (single isomer, unassigned; isomer 1) [3-furanmethanol glucoside isomer 1, 3-furanmethanol glucoside], for which, under setting [1], the “mean chromatographic area in plasma, T0.5” value was 27. Also, the “mean chromatographic area in plasma, T1” value (1 h after O. europaea extract) is 200. In addition, for the setting “2 h after O. europaea extract”, the “mean chromatographic area in plasma, T2” value came out at 184. For the setting “4 h after O. europaea extract”, the “mean chromatographic area in plasma, T4” value turned out to be 107. Further, the “mean chromatographic area in plasma, T6” value (6 h after O. europaea extract) was 17. For the same compound, the “mean chromatographic area in plasma, T8” value (8 h after O. europaea extract) came to 0. Moreover, the “mean chromatographic area in plasma, T10” value (10 h after O. europaea extract) stood at 0. Further, under setting [2], the “Cmax: relative maximum plasma level” value is listed as 236 ± 104 relative chromatographic area and the “observed Tmax: time required” value is listed as 1.6 ± 0.5 h.

`OC[C@H]1O[C@@H](OCc2ccoc2)[C@H](O)[C@@H](O)[C@@H]1O` (single isomer, unassigned; isomer 2) [3-furanmethanol glucoside isomer 2, 3-furanmethanol glucoside]: the “mean chromatographic area in plasma, T0.5” value under setting [1] was 625. In addition, the “mean chromatographic area in plasma, T1” value (1 h after O. europaea extract) worked out at 1234. Also, under “2 h after O. europaea extract”, the “mean chromatographic area in plasma, T2” value is listed as 961. Also, the “mean chromatographic area in plasma, T4” value (4 h after O. europaea extract) was found to be 483. Further, for the setting “6 h after O. europaea extract”, the “mean chromatographic area in plasma, T6” value turned out to be 250. Also, the “mean chromatographic area in plasma, T8” value (8 h after O. europaea extract) was found to be 113. The “mean chromatographic area in plasma, T10” value (10 h after O. europaea extract) is listed as 0. Besides, under setting [2], the “Cmax: relative maximum plasma level” value is 1234 ± 489 relative chromatographic area and the “observed Tmax: time required” value is 1 ± 0 h.

Regarding `COc1cc(C)cc(OC)c1OC` [1,2,3-trimethoxy-5-methyl benzene], the “mean chromatographic area in plasma, T0.5” value under setting [1] was 117. Besides, where the note is “1 h after O. europaea extract”, the “mean chromatographic area in plasma, T1” value was 221. Besides, under “2 h after O. europaea extract”, the “mean chromatographic area in plasma, T2” value is given as 105. For the same compound, where the note is “4 h after O. europaea extract”, the “mean chromatographic area in plasma, T4” value is reported as 0. The “mean chromatographic area in plasma, T6” value (6 h after O. europaea extract) came to 0. Further, the “mean chromatographic area in plasma, T8” value (8 h after O. europaea extract) stood at 0. Besides, the “mean chromatographic area in plasma, T10” value (10 h after O. europaea extract) came out at 0. In addition, under setting [2], the “Cmax: relative maximum plasma level” value is on record as 221 ± 72 relative chromatographic area and the “observed Tmax: time required” value amounted to 1 ± 0 h.

`Oc1cc(O)c2c(c1)O[C@H](c1ccc(O)c(O)c1)[C@H](O)[C@H]2SCc1ccccc1` [4β-benzylthioepicatechin]: under setting [1], the “mean chromatographic area in plasma, T0.5” value came out at 25. Moreover, for the setting “1 h after O. europaea extract”, the “mean chromatographic area in plasma, T1” value is 123. In addition, the “mean chromatographic area in plasma, T2” value (2 h after O. europaea extract) is listed as 151. Moreover, the “mean chromatographic area in plasma, T4” value (4 h after O. europaea extract) worked out at 50. Moreover, the “mean chromatographic area in plasma, T6” value (6 h after O. europaea extract) stood at 0. Also, the “mean chromatographic area in plasma, T8” value (8 h after O. europaea extract) was 0. For the same compound, the “mean chromatographic area in plasma, T10” value (10 h after O. europaea extract) turned out to be 0. Besides, under setting [2], the “Cmax: relative maximum plasma level” value is given as 158 ± 62 relative chromatographic area and the “observed Tmax: time required” value was 1.7 ± 0.5 h.

As for `COC(=O)C1=CO[C@H](O)/C(=C/CO)[C@@H]1CC(=O)OCCc1ccc(O)c(O)c1` [10-hydroxyoleuropein aglycone], the “mean chromatographic area in plasma, T0.5” value under setting [1] amounted to 165. Moreover, where the note is “1 h after O. europaea extract”, the “mean chromatographic area in plasma, T1” value is reported as 142. In addition, under “2 h after O. europaea extract”, the “mean chromatographic area in plasma, T2” value is 15. For the same compound, the “mean chromatographic area in plasma, T4” value (4 h after O. europaea extract) was determined as 0. Also, the “mean chromatographic area in plasma, T6” value (6 h after O. europaea extract) was 0. For the same compound, under “8 h after O. europaea extract”, the “mean chromatographic area in plasma, T8” value turned out to be 0. Moreover, under “10 h after O. europaea extract”, the “mean chromatographic area in plasma, T10” value is recorded as 0. Besides, under setting [2], the “Cmax: relative maximum plasma level” value is 194 ± 76 relative chromatographic area and the “observed Tmax: time required” value was 0.7 ± 0.2 h.

Regarding `O=C(/C=C/C1=CC(=O)C(=O)C=C1)OC1CC(O)(C(=O)O)CC(O)C1O` (stereo not drawn) [chlorogenoquinone], under setting [1], the “mean chromatographic area in plasma, T0.5” value worked out at 181. Further, the “mean chromatographic area in plasma, T1” value (1 h after O. europaea extract) was 315. The “mean chromatographic area in plasma, T2” value (2 h after O. europaea extract) was found to be 154. Under “4 h after O. europaea extract”, the “mean chromatographic area in plasma, T4” value stood at 12. Besides, under “6 h after O. europaea extract”, the “mean chromatographic area in plasma, T6” value came to 11. The “mean chromatographic area in plasma, T8” value (8 h after O. europaea extract) is given as 0. Moreover, the “mean chromatographic area in plasma, T10” value (10 h after O. europaea extract) is 0. Under setting [2], the “Cmax: relative maximum plasma level” value is recorded as 324 ± 7 relative chromatographic area and the “observed Tmax: time required” value was 0.9 ± 0.2 h.

On to `C[C@]12CC[C@@H](O[C@@H]3O[C@H](C(=O)O)[C@@H](O)[C@H](O)[C@H]3O)C[C@@H]1CC[C@@H]1[C@@H]2C(=O)C[C@@]2(C)[C@H]1CC[C@]2(O)[C@@H](O)CO` [cortolone-3-glucuronide], for which, under setting [1], the “mean chromatographic area in plasma, T0.5” value stood at 0. Moreover, under “1 h after O. europaea extract”, the “mean chromatographic area in plasma, T1” value amounted to 0. Further, under “2 h after O. europaea extract”, the “mean chromatographic area in plasma, T2” value amounted to 0. Also, the “mean chromatographic area in plasma, T4” value (4 h after O. europaea extract) amounted to 160. Also, the “mean chromatographic area in plasma, T6” value (6 h after O. europaea extract) is 82. The “mean chromatographic area in plasma, T8” value (8 h after O. europaea extract) came to 63. Moreover, for the setting “10 h after O. europaea extract”, the “mean chromatographic area in plasma, T10” value came to 0. Further, under setting [2], the “Cmax: relative maximum plasma level” value is recorded as 163 ± 88 relative chromatographic area and the “observed Tmax: time required” value stood at 4.4 ± 0.8 h.

For `O=C(O)CCCCCCCCC(=O)O` [debacic acid isomer 3, sebacic acid], for the setting “human, in vivo, po, 500 mg”, the “Cmax: relative maximum plasma level” value is given as 330 ± 109 relative chromatographic area and the “observed Tmax: time required” value amounted to 6 ± 2 h. Further, where the note is “in vivo”, the “mean chromatographic area in plasma, T0.5” value is given as 13; the “mean chromatographic area in plasma, T1” value was 0; the “mean chromatographic area in plasma, T2” value amounted to 33; the “mean chromatographic area in plasma, T4” value is 209. Moreover, for the setting “in vivo”, the “mean chromatographic area in plasma, T6” value worked out at 226; the “mean chromatographic area in plasma, T8” value came out at 178; the “mean chromatographic area in plasma, T10” value is 141.

With `O=C(O)CCCCCCCCC(=O)O` [decanedioic acid isomer 1, decanedioic acid], the “mean chromatographic area in plasma, T0.5” value under setting [1] stood at 0. In addition, where the note is “1 h after O. europaea extract”, the “mean chromatographic area in plasma, T1” value is 169. Moreover, under “2 h after O. europaea extract”, the “mean chromatographic area in plasma, T2” value was found to be 232. Besides, the “mean chromatographic area in plasma, T4” value (4 h after O. europaea extract) is on record as 167. Besides, where the note is “6 h after O. europaea extract”, the “mean chromatographic area in plasma, T6” value was found to be 68. Moreover, the “mean chromatographic area in plasma, T8” value (8 h after O. europaea extract) is 11. Moreover, the “mean chromatographic area in plasma, T10” value (10 h after O. europaea extract) is 0. Under setting [2], the “Cmax: relative maximum plasma level” value is 232 ± 48 relative chromatographic area and the “observed Tmax: time required” value came to 2 ± 0 h.

As for `O=C(O)CCCCCCCCC(=O)O` [decanedioic acid isomer 2, decanedioic acid], under setting [1], the “mean chromatographic area in plasma, T0.5” value came out at 0. For the same compound, the “mean chromatographic area in plasma, T1” value (1 h after O. europaea extract) is on record as 0. Moreover, the “mean chromatographic area in plasma, T2” value (2 h after O. europaea extract) came to 26. The “mean chromatographic area in plasma, T4” value (4 h after O. europaea extract) turned out to be 47. Besides, the “mean chromatographic area in plasma, T6” value (6 h after O. europaea extract) stood at 84. The “mean chromatographic area in plasma, T8” value (8 h after O. europaea extract) is reported as 38. The “mean chromatographic area in plasma, T10” value (10 h after O. europaea extract) was determined as 60. For the same compound, under setting [2], the “Cmax: relative maximum plasma level” value was 112 ± 11 relative chromatographic area and the “observed Tmax: time required” value is recorded as 6 ± 3 h.

Source of the values: paper PMC11544713, “The Application of Untargeted Metabolomic Approaches for the Search of Common Bioavailable Metabolites in Human Plasma Samples from Lippia citriodora and Olea europaea Extracts” (Journal of Agricultural and Food Chemistry, 2024).
